{
  "source": "the supplement of paper PMC10307832",
  "experiment_in_all_cases": "relative viability (nuclei count vs DMSO), 5 days (fraction); higher = more cells survive",
  "key": {"[1]": {"compound": "C1CNCCC1C2=CC(=NN2)C3=CC=NC=C3 + CC1(C)CCC(c2ccc(Cl)cc2)=C(CN2CCN(c3ccc(C(=O)NS(=O)(=O)c4ccc(N[C@H](CCN5CCOCC5)CSc5ccccc5)c(S(=O)(=O)C(F)(F)F)c4)cc3)CC2)C1 [Navitoclax] (partner 0.5 µM)", "method_in_brief": "(§1)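 Relative viability equals treated-well nuclei counts divided by vehicle-well nuclei counts. Counts came from 4× images of lung cancer cell lines grown in 1536-well plates for 5 days after pin-tool dosing on the day after seeding. Dosing used one drug alone or a fixed anchor-drug dose plus five library-drug doses (not always all listed) in √10 steps, and values are medians of duplicate plates.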"}, "[2]": {"compound": "C1CNCCC1C2=CC(=NN2)C3=CC=NC=C3 + Cc1nc(NC(=O)N2CCC[C@H]2C(N)=O)sc1-c1ccnc(C(C)(C)C(F)(F)F)c1 [Alpelisib] (partner 2 µM)", "method_in_brief": "as §1"}, "[3]": {"compound": "C[C@@H](N)c1ccc(C(=O)Nc2ccnc3[nH]ccc23)cc1 + O=C(c1cc(Cc2n[nH]c(=O)c3ccccc23)ccc1F)N1CCN(C(=O)C2CC2)CC1 [Olaparib] (partner 8 µM)", "method_in_brief": "as §1"}, "Tanzisertib + OSI-027": {"compound": "O[C@H]1CC[C@H](Nc2ncc3nc(Nc4c(F)cc(F)cc4F)n([C@H]4CCOC4)c3n2)CC1 [Tanzisertib] + COc1cccc2cc(-c3nc([C@H]4CC[C@H](C(=O)O)CC4)n4ncnc(N)c34)[nH]c12 [OSI-027] (partner 0.5 µM)", "method_in_brief": "as §1"}},
  "data": [
    {"cell line": "UMC-11", "values": [
      {"measurement": "relative viability", "setting": "[1]; first compound 0.08 µM", "result": 0.3},
      {"measurement": "relative viability", "setting": "[1]; first compound 0.8 µM", "result": 0.344},
      {"measurement": "relative viability", "setting": "[1]; first compound 2.53 µM", "result": 0.321},
      {"measurement": "relative viability", "setting": "[1]; first compound 8 µM", "result": 0.355},
      {"measurement": "relative viability", "setting": "[2]; first compound 0.08 µM", "result": 0.815},
      {"measurement": "relative viability", "setting": "[2]; first compound 0.8 µM", "result": 1.22},
      {"measurement": "relative viability", "setting": "[2]; first compound 2.53 µM", "result": 0.911},
      {"measurement": "relative viability", "setting": "[2]; first compound 8 µM", "result": 1.03},
      {"measurement": "relative viability", "setting": "[3]; first compound 0.04 µM", "result": 0.359},
      {"measurement": "relative viability", "setting": "[3]; first compound 0.1265 µM", "result": 0.427},
      {"measurement": "relative viability", "setting": "[3]; first compound 0.4 µM", "result": 0.357},
      {"measurement": "relative viability", "setting": "[3]; first compound 1.265 µM", "result": 0.303},
      {"measurement": "relative viability", "setting": "[3]; first compound 4 µM", "result": 0.285},
      {"measurement": "relative viability", "setting": "Tanzisertib + OSI-027; first compound 0.08 µM", "result": 0.532},
      {"measurement": "relative viability", "setting": "Tanzisertib + OSI-027; first compound 0.253 µM", "result": 0.391},
      {"measurement": "relative viability", "setting": "Tanzisertib + OSI-027; first compound 0.8 µM", "result": 0.537},
      {"measurement": "relative viability", "setting": "Tanzisertib + OSI-027; first compound 2.53 µM", "result": 0.439},
      {"measurement": "relative viability", "setting": "Tanzisertib + OSI-027; first compound 8 µM", "result": 0.477}
    ]}
  ]
}
